From patent publication EP2945947B1, “INHIBITING THE TRANSIENT RECEPTOR POTENTIAL A1 ION CHANNEL” (Merck Sharp & Dohme Corp., priority 2013, dated 2014)
In brackets after ≈: the same amount, converted by molar mass. Where two headings read alike, the source gives them in different places. Marks after values point to notes of the source that are not given here.

Key:
[1] = Aqueous solubility in buffered solutions, HPLC (Example 2); assay type: physicochemical; conditions: kinetic from dmso stock, ambient temperature
rats = assay: Rodent formalin pain model (Example 3); assay type: in vivo; conditions: rat; for Minimal Efficacious Dose of Compound in Formalin Model: IV, statistically significant difference vs vehicle at 0 - 2 min (p≤0.05); for Duration of Pain Behavior: first two minutes after formalin, vehicle 88.6
Experimental: Compounds of Formula (Ia) are active in rodent models of pain induced by direct activation of the TRPA1 channel with intraplantar injection of the TRPA1 agonist formalin. Compounds of Formula (Ia) were tested in the formalin-induced pain test reported by Abbott et. al. Pain. 1995 Jan;60(1):91-102. Dubuisson et al. describe a method for assessing pain and analgesia in rats. Briefly, dilute formalin (50 µL of 3 % formalin) is injected into the plantar surface of the hind paw. […] The individual responsible for counting the pain behaviors in a particular study is blinded to the treatment groups.
Table 2 is a data table showing the results from testing compounds of Formula (Ia) in the rodent formalin-induced pain model described in […]. Rats were treated with the compounds of Formula (Ia) at various doses (0.1, 0.3, 1, 1.2, 3, 4, 10, or 30 mg/Kg IV) or with a control composition containing the vehicle (i.e., without a compound of Formula (Ia)). Pain behaviors (flinch, lift, lick, bite) were monitored following intraplantar formalin injection. Referring to Table 2, the minimum effective dose was derived from dose resulting in statistically significant difference in behavior at 0 - 2 min time period as compared with vehicle (p≤0.05).

[2] = system: Female Sprague Dawley rats; assay: Rodent acute tolerability test with liver function tests (Example 5); assay type: in vivo, rat; parameters: key to Alterations in LFT: (↔) indicates blood levels of markers for potential liver damage within normal range; (↑) indicates blood levels of markers for potential liver damage elevated above normal range; conditions: single IV bolus dose 100 mg/kg, about 24 hours post dose
Experimental: Compounds of Formula (Ia) were assessed for acute tolerability in a rodent model at dose levels ranging from 100 - 200 mg/kg based upon the minimum efficacious dose of each compound. Female Sprague Dawley rats were administered up to a 10 mL/kg dose volume of each compound in 0.9% saline at appropriate concentrations as an intravenous bolus via the lateral tail vein. The animals were observed immediately post dose and for up to twenty four hours post dose and clinical observations were recorded. Additionally, approximately twenty four hours post dose animals were euthanized and blood taken for serum chemistry analysis with a focus on liver function tests (LFTs). The maximum tolerated single dose and LFT results are summarized in Table 3, where (↔) indicates blood levels of markers for potential liver damage within normal range and (↑) indicates blood levels of markers for potential liver damage elevated above normal range. Referring to the data in Table 3, LFT blood levels of markers for potential liver damage remained within normal range for the compounds of Formula (Ia), while LFTs were elevated for Comparator Compounds including 5-10 fold elevation above normal for ALT and AST blood levels observed upon administration of Comparative Compound 1. […]

human TRPA1 = human TRPA1 (Homo sapiens, UniProt O75762); assay: Inhibition of the TRPA1 ion channel, whole cell patch configuration (Example 1); assay type: cell-based; conditions: current activation 10 µM AITC, read-out: Human TRPA1 IC50 Inward Current
human TRPA1, sequence (O75762 whole entry): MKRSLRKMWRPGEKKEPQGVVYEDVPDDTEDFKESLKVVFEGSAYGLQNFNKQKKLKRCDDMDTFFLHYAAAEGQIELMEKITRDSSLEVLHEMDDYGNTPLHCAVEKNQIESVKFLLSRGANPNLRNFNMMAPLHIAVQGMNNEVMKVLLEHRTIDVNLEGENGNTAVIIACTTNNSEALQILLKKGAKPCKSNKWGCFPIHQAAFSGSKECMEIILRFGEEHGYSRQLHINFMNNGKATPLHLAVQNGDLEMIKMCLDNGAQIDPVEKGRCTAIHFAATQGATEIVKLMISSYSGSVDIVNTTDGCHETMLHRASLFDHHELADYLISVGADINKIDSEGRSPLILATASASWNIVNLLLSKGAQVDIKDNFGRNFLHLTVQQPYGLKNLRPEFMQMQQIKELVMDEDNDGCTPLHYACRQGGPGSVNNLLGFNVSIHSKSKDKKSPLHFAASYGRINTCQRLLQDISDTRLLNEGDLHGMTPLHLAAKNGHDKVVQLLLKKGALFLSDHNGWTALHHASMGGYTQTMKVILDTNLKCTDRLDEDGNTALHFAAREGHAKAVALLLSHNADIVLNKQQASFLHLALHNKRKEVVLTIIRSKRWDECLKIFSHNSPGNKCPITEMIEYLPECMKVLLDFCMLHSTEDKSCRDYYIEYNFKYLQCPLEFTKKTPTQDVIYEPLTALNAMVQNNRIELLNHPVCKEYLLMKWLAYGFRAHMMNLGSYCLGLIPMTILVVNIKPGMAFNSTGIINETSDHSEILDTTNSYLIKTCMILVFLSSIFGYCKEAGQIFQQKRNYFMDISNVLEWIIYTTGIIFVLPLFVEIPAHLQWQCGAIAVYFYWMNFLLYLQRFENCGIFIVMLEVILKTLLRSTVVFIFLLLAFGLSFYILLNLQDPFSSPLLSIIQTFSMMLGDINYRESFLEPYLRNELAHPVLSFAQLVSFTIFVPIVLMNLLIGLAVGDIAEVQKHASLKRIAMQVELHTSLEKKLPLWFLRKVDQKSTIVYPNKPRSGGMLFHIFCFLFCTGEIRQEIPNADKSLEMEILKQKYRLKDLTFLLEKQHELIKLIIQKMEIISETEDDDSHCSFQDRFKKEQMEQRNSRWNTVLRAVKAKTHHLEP
Experimental: Compounds of Formula (Ia) inhibit the TRPA1 channel, as measured using the method of Example 1. […] Data for TRPA1 inhibition and for TRPA1 selectivity was obtained by this method for the indicated compounds of Formula (Ia), with the relevant data included in Tables 1a - f below. All currents were recorded in whole-cell configuration using EPC-9 and EPC-10 amplifiers and Patchmaster software (HEKA). […] The standard pipette solution consisted of 140mM CsAsp, 10 mM EGTA, 10 mM HEPES, 2.27 mM MgCl2, 1.91 mM CaCl2, 4 mM MgATP, and 0.1-0.3 mM Na2GTP, with pH adjusted to 7.2 with CsOH. In addition, a solution containing 145 mM CsCl, 10 mM HEPES, 10 mM EGTA and 1 mM MgCl2 (pH 7.2 adjusted with CsOH) can be used. The standard bath solution contained 150 mM NaCl, 10 mM HEPES, 10 mM glucose, 4.5 mM KCl, 1 mM EGTA, 3 mM MgCl2, with pH adjusted to 7.4 with NaOH. In some instances, 2 mM CaCl2 was added in place of EGTA and the concentration of MgCl2 was reduced to 1 mM.
Data were collected either by continuous recordings at -60 mV or by applying voltage ramps from a holding potential of 0 mV every 4 s. Continuous recordings were collected at 400 Hz and digitally filtered off-line at 10 Hz for presentation. Voltage ramps were applied from - 100 mV to 100 mV over the course of 400 ms, and data were collected at 10 kHz and filtered at 2.9 kHz. Inward and outward currents were analyzed from the ramps at -80 and 80 mV, respectively. Liquid junction potential correction was not used.
Solutions were switched using a gravity-fed continuous focal perfusion system. To achieve rapid temperature changes, two temperature control, and perfusion systems were employed simultaneously. For temperatures ≥ 22°C, a Warner Instruments bipolar temperature controller (TC-344B) and inline heater (SHM-8) were used. […] Temperatures were confirmed using a thermistor (Warner Instruments, TA-29), with temperatures at the recorded cell estimated to be within +/- 2°C of those reported.
The antagonist effects of compounds of Formula (Ia) against human TRPA1 ("hTRPA1") and for some compounds rat TRPA1 ("rTRPA1") in a whole cell patch configuration were evaluated using the in vitro assay described above. The current activation tested was 10 µM AITC, and the tested concentrations ranged from 5 µM and 500 nM. Table 1a (Comparative Compounds)

sheep = assay: Sheep model of experimental allergic asthma, Ascaris suum antigen challenge (Example 6); assay type: in vivo; conditions: for inhibition of the AHR / inhibition of the EAR / inhibition of the LAR: sheep; for Average Early Airway Response (EAR) / Average Late Airway Response (LAR) / Airway Hyperresponsiveness (AHR): 4 days; for Average Early Airway Response (EAR): average increase in RL 0-4h after challenge; for Average Late Airway Response (LAR): average increase in RL 5-8h after challenge; for Airway Hyperresponsiveness (AHR): ratio of post challenge PC400 to pre challenge PC400
Experimental: Compounds were tested in the sheep model of experimental asthma reported in Abraham WM, Asthma & Rhinitis, 2000: 1205-1227. All animals were tested for both early and late stage airway responses to inhalation challenge with Ascaris suum antigen.
The unsedated sheep were restrained in a cart in the prone position with their heads immobilized. After topical anesthesia of the nasal passages with 2% lidocaine solution, a balloon catheter was advanced through one nostril into the lower esophagus. The animals were intubated with a cuffed endotracheal tube through the other nostril. Pleural pressure was estimated with the esophageal balloon catheter. Lateral pressure in the trachea was measured with a sidehole catheter advanced through and positioned distal to the tip of the endotracheal tube. Transpulmonary pressure, the difference between tracheal and pleural pressure, was measured with a differential pressure transducer catheter system. For the measurement of pulmonary resistance (RL), the proximal end of the endotracheal tube was connected to a pneumotachograph. The signals of flow and transpulmonary pressure were recorded on an oscilloscope recorder, which was linked to a computer for on-line calculation of RL from transpulmonary pressure, respiratory volume (obtained by digital integration) and flow. Analysis of 5-10 breaths were used for the determination of RL in cm H2O / L x sec^-1.
Aerosols of Ascaris suum extract (diluted 20:1 with phosphate buffered saline; 82,000 PNU/ml) were generated using a disposable medical nebulizer (Raindrop^R, Puritan Bennett). The output from the nebulizer was directed into a plastic t-piece, one end of which was connected to the inspiratory port of a Harvard respirator. To better control aerosol delivery, a dosimeter consisting of a solenoid valve and a source of compressed air (20 psi) was activated at the beginning of the inspiratory cycle of the Harvard respirator system for 1 s. The aerosol was delivered at a tidal volume of 500 ml and a rate of 20 breaths per minute. Each sheep was challenged with an equivalent dose of antigen in the control and drug trials. Carbachol aerosols were also generated with this same nebulizer system.
For the carbachol concentration response curves, measurements of RL were repeated immediately after inhalation of buffer and after each administration of 10 breaths of increasing concentrations of carbachol solution (0.25%, 0.5%, 1.0%, 2.0% and 4.0% w/v). To assess airway responsiveness, the cumulative carbachol dose in breath units (BU) that increased RL 400% over the post-buffer value (i.e. PC 400) was calculated from the dose response curve. One breath unit was defined as one breath of a 1% w/v carbachol solution.
Compound 5-T was given at doses of 1, 3 and 10 mg/kg given orally once a day for 3 days and on day 4, 2 hours before antigen challenge. A group of sheep also received a vehicle control.
A pre-challenge (baseline) PC 400 was obtained 1-3 days before the start of dosing. Then on the day of antigen challenge, the sheep received the last dose of Compound 5-T 2h before antigen challenge. Values of lung resistance (RL) were measured at baseline, 1.5 h after drug treatment and, then, serially for 8h after challenge with Ascaris suum antigen. Measurements of RL were obtained 24 h after challenge followed by the 24 h post challenge determination of PC 400. Responses to antigen challenge with drug and/or vehicle treatment were compared to each animal's historical control.
Two groups of animals (n=3) were used for these studies. Group 1 received the vehicle control and the 1 mg/kg dose. Group 2 received the 3 mg/kg dose and the 10 mg/kg dose. A Repeated Measures Analysis of Variance was used to compare the responses within each group to their historical control. If a significant difference was found, then Tukey's post hoc test was used to determine pair wise differences. […]

[3] = sodium bicarbonate buffer in water for injection/5% dextrose, pH 9.0, 50 mM sodium bicarbonate, read-out: pH 9.0 aqueous solubility
[4] = sodium phosphate buffer in water for injection/5% dextrose, pH 7.4, 75 mM sodium phosphate, read-out: pH 7.4 aqueous solubility

| SMILES | solubility kinetic at 24 h [1, 3] [µg/mL] | solubility kinetic at 24 h [1, 4] [µg/mL] | Minimal Efficacious Dose of Compound in Formalin Model (rats) [mg/kg] | Duration of Pain Behavior (rats; dose 0.3 mg/kg IV) [s] | Duration of Pain Behavior (rats; dose 1 mg/kg IV) [s] | Duration of Pain Behavior (rats; dose 3 mg/kg IV) [s] | Alterations in LFT [2] | LFT: % upper normal range ALT serum levels [2] [%/<100%] | LFT: % upper normal range AST serum levels [2] [%/<100%] | IC50 (human TRPA1) [nM] | also measured |
| --- | --- | --- | --- | --- | --- | --- | --- | --- | --- | --- | --- |
| C[C@@H](C(=O)N(COP(=O)(O)O)c1cncc(-c2cnc(N3CCC[C@H]3C(F)(F)F)nc2)n1)n1cnc2c1c(=O)n(C)c(=O)n2C [Compound 5-S, ((S)-2-(1,3-dimethyl-2,6-dioxo-1,2,3,6-tetrahydro-7H-purin-7-yl)-N-(6-(2-((S)-2-(trifluoromethyl)pyrrolidin-1-yl)pyrimidin-5-yl)pyrazin-2-yl)propanamido)methyl dihydrogen phosphate] | > 1000 | > 1000 | 3 | 69.8 | 52.3 | 8.4 | ↔ | <100 | <100 | > 100 | Duration of Pain Behavior (rats; dose 10 mg/kg IV): 0 s |
| C[C@@H](C(=O)Nc1cncc(-c2cnc(N3CCC[C@H]3C(F)(F)F)nc2)n1)n1cnc2c1c(=O)n(C)c(=O)n2C [Compound 5-T, (S)-2-(1,3-dimethyl-2,6-dioxo-1,2,3,6-tetrahydro-7H-purin-7-yl)-N-(6-(2-((S)-2-(trifluoromethyl)pyrrolidin-1-yl)pyrimidin-5-yl)pyrazin-2-yl)propanamide] | 7 (≈ 12.9 µM) | 5 (≈ 9.18 µM) |  |  |  |  |  |  |  | < 25 | inhibition of the AHR (sheep; 1 mg/Kg dose): 45%; inhibition of the EAR (sheep; 1 mg/Kg dose): no effect on EAR; inhibition of the LAR (sheep; 1 mg/Kg dose): 48%; Average Early Airway Response (EAR) (sheep; 1 mg/Kg orally once a day, Control 1 175 ± 25): 171 ± 17; Average Late Airway Response (LAR) (sheep; 1 mg/Kg orally once a day, Control 1 113 ± 4): 59 ± 1*^+; Airway Hyperresponsiveness (AHR) (sheep; 1 mg/Kg orally once a day, Control 1 0.49 ± 0.04): 0.71 ± 0.01*^+; inhibition of the AHR (sheep; 3 mg/Kg dose): 100%; inhibition of the EAR (sheep; 3 mg/Kg dose): 51%; inhibition of the LAR (sheep; 3 mg/Kg dose): 78%; Average Early Airway Response (EAR) (sheep; 3 mg/Kg orally once a day, Control 2 195 ± 15): 95 ± 6; Average Late Airway Response (LAR) (sheep; 3 mg/Kg orally once a day, Control 2 107 ± 5): 24 ± 1; Airway Hyperresponsiveness (AHR) (sheep; 3 mg/Kg orally once a day, Control 2 0.41 ± 0.01): 0.92 ± 0.08; inhibition of the AHR (sheep; 10 mg/Kg dose): 100%; inhibition of the EAR (sheep; 10 mg/Kg dose): 72%; inhibition of the LAR (sheep; 10 mg/Kg dose): 79%; Average Early Airway Response (EAR) (sheep; 10 mg/Kg orally once a day, Control 2 195 ± 15): 55 ± 2*^; Average Late Airway Response (LAR) (sheep; 10 mg/Kg orally once a day, Control 2 107 ± 5): 22 ± 3; Airway Hyperresponsiveness (AHR) (sheep; 10 mg/Kg orally once a day, Control 2 0.41 ± 0.01): 1.00 ± 0.14; inhibition of the average early airway response (EAR), compared to Comparative Compound 2 (sheep; at the doses tested): improved inhibition; inhibition of the average late airway response (LAR) and the airway hyperresponsiveness (AHR) (sheep; doses 1, 3 and 10 mg/kg orally): dose dependent inhibition |
| C[C@@H](C(=O)N(COP(=O)(O)O)c1cncc(-c2cnc(N3CCCC3(C)C)nc2)n1)n1cnc2c1c(=O)n(C)c(=O)n2C [Compound 2-E, (S)-(2-(1,3-dimethyl-2,6-dioxo-1,2,3,6-tetrahydro-7H-purin-7-yl)-N-(6-(2-(2,2-dimethylpyrrolidin-1-yl)pyrimidin-5-yl)pyrazin-2-yl)propanamido)methyl dihydrogen phosphate] | > 1000 | > 1000 | 3 | 80.4 | 77 | 15.1 | ↔ | <100 | <100 | > 100 |  |
